As usually defined, the IC50 is the midpoint of a concentration-inhibition curve.

Calls of active or inactive are those of the source. The rule behind the calls is not given here. A value given as a limit tells only on which side of the number the result lay.

The nature of experiment [1]: Inhibition of CK2.
Experiment [2] is described as follows: Inhibition of CK2 expressed in HEK293 cells by SRE-luciferase reporter gene assay. In kind it is cell-based.
The nature of experiment [3]: Selectivity ratio of IC50 for PKA to CK2.
A short description of experiment [4]: Selectivity ratio of IC50 for PKC to CK2.
Experiment [5] can be described thus: Selectivity ratio of IC50 for S6 kinase to CK2.
The subject of a further experiment is Rattus norvegicus. As to the kind of experiment: Antinephritic activity in anti-GBM glomerulonephritis Wistar-Kyoto rat model assessed as improved proteinuria at 15 mg/kg, ip qd measured at day 7 by pyrogallol Red method. In kind it is functional, organism-based. Details: dose 15 mg/kg.
Experiment [6] in a line: Selectivity ratio of IC50 for CAMK2 to CK2.
Experiment [7] in a line: Selectivity ratio of IC50 for ERK to CK2.
Experiment [8] is described as follows: Selectivity ratio of IC50 for p38beta2 to CK2.

As to `O=C(O)Cc1ccn(-c2cncc(-n3ccc4ccccc43)n2)c1`, in experiment [1], the 50% inhibitory concentration (IC50) was 0.1 µM.
On the same count and under the same terms, then `O=C(O)Cc1ccn(-c2cncc(N3CCc4ccccc43)n2)c1`, with 0.05 µM; and `O=C(O)Cc1ccn(-c2cncc(-n3cnc4ccccc43)n2)c1`, with 0.1 µM.
Take `O=C(O)Cc1ccn(-c2cncc(-n3ncc4ccc(Cl)cc43)n2)c1`: the IC50 in [1] was found to be 0.016 µM; in experiment [2], 4 µM.
As for `O=C(O)Cc1ccn(-c2cncc(-n3ncc4ccccc43)n2)c1`, half-maximal inhibition in experiment [1] (IC50) required 0.03 µM. This counts as double-digit nanomolar.
Same read-out and setting: with `Cc1cc(O)c2c(c1)C(=O)c1cc(O)cc(O)c1C2=O` [EMODIN] the figure was 2 µM.
Still for that read-out and setting: with `O=C(O)Cc1c2ccccc2n2c1[nH]c(=O)c1ccccc12` the figure was 0.08 µM; with `O=C(O)Cc1cn(-c2cncc(-n3cc(CC(=O)O)c4ccccc43)n2)c2ccccc12`, 0.3 µM.
`CC(C)Nc1ccc2cnn(-c3cncc(-n4ccc(CC(=O)O)c4)n3)c2c1`: the IC50 was determined as 0.008 µM in experiment [1] and 1 µM in experiment [2].
Turning to `O=C(O)Cc1ccn(-c2cncc(-n3nc(Cl)c4ccccc43)n2)c1`, the IC50 in [1] was 0.012 µM; in experiment [2], 30 µM.
In turn, `Nc1ccc2cnn(-c3cncc(-n4ccc(CC(=O)O)c4)n3)c2c1` yielded an IC50 in [1] of 0.025 µM.
As for `Nc1nn(-c2cncc(-n3ccc(CC(=O)O)c3)n2)c2ccccc12`, the values for the IC50 in experiment [1] and in experiment [2] were 0.008 µM and 15 µM, respectively.
For the compound `O=C(O)Cc1cn(-c2cncc(-n3cccc3)n2)c2ccccc12`, it took 3 µM to reach half-maximal inhibition in experiment [1] (IC50).
On the same count and under the same terms, then `O=C(O)Cc1cn(-c2cncc(-n3ccc4ccccc43)n2)c2ccccc12`, with 0.5 µM.
On to `N#Cc1ccc2cnn(-c3cncc(-n4ccc(CC(=O)O)c4)n3)c2c1`, for which the IC50 in experiment [1] was 0.022 µM; in experiment [2] it was 11 µM.
On to `O=C(O)Cc1ccn(-c2cncc(-n3ncc4ccc(NC5CCCC5)cc43)n2)c1`, for which the Ratio IC50 in [3] is greater than 740; in experiment [4], greater than 740; in [5], 626; in [6], 162; in experiment [7] it was greater than 740; in experiment [8], greater than 740. Also, the result in the experiment on Rattus norvegicus was Active. Besides, the IC50 in experiment [1] was 0.0093 µM; in experiment [2], 0.9 µM.

Values taken from ChEMBL document CHEMBL2046363, “Discovery and structure-activity relationship of 2,6-disubstituted pyrazines, potent and selective inhibitors of protein kinase CK2” (Bioorg Med Chem Lett, 2012).
